# Measured values as given in US20100173018A1, “Microbicidal Compositions Including Activated Nitrogenous Compound and 1,4-Bis(Bromoacetoxy)-2-Butene, and Methods Of Using The Same” (BUCKMAN LABORATORIES INTERNATIONAL, INC., priority 2009, published 2010).
# “Also recorded” adds a separate entry of the source.
# Legend:
# [1] = system: filamentous bacteria isolate from a paper mill slime deposit (Flectobacillus species); assay: Synergy evaluation against filamentous bacteria (checkerboard, CFU on agar); format: cell-based
# Method: Synergy evaluation against filamentous bacteria. The checkerboard method was used to determine the Fractional Inhibitory Index (FIC) as a predictor of synergy between Activated N-Compound and Busan 1210 (BBAB) against a pure isolate of filamentous bacteria cultured from a paper mill slime deposit. The isolate was identified by 16 S ribosomal RNA sequencing technique. Gene assembly and data analysis was performed using MicroSeq data analysis and identification software; the isolate was identified as a Flectobacillus species. Modified Basal Salts Buffer was inoculated with a suspension of the bacterial isolate to yield a final concentration of 1×10^5 cells per ml. Using a delay between additions, Busan 1210 (BBAB) was added 20 minutes prior to the addition of monochloramine (MCA). After a 3 hours exposure time, the treatments were sub-cultured onto Nutrient and Plate Count Agar (PCA) and incubated at 28° C. for 48 hours. The plates were examined for colony forming units (CFU) and compared to untreated control. [formula] Synergy is expressed as a Fractional inhibitory Concentration Index (FIC), calculated as follows: FIC=[A]/[a]+[B]/[b] where, [A] and [B]=MIC of the compounds A and B when in combination [a] and [b]=MIC of the compounds A and B when alone
# [2] = system: Enterobacter aerogenes (ATCC 13048); assay: Evaluation of bactericidal activity (MIC, Bactometer impedance) with checkerboard synergy evaluation; format: cell-based; conditions: value <1 denotes synergistic activity
# Method: A. Evaluation of Bactericidal Activity. This test method provides a technique for testing compounds for their effectiveness to control bacterial growth. MIC values represent the Minimum Inhibitory Concentration, defined as the lowest level of compound required to produce a 90% kill of a given organism.
# Cell suspension from an 18 to 24 hour bacterial culture of Staphylococcus aureus (ATCC 6538) or Bacillus subtilis (ATCC 6633) or Enterobacter aerogenes (ATCC 13048) to attain a desired cell concentration. Using a McFarland nephelometer barium sulfate standard or some other suitable method, adjust the concentration of the bacterial suspension so that a final concentration of between 1×10^4 and 1×10^5 cells per ml is achieved when 100 μl of the inoculum is added to 5 ml of basal salts substrate. […]
# • Bacterial growth in the tubes is measured by monitoring impedance levels on the Bactometer. • Dispense 1 ml aliquots of Modified WILKINS Chalgren Broth (Bactometer Media) into Bactometer wells; add 25 μl of treatment from the incubated tubes. […]
# Synergy was measured by checkerboards dilutions (Yan and Hancock, 2001), in which one compound is diluted along the rows of test tubes and the other is diluted along the columns. […] The result is expressed as the Fractional Inhibitory Concentration Index (FIC), calculated as follows: […]
# [3] = system: white water (ww) sample with a sulfite content of 12.8 ppm; assay: Synergism in the presence of sulfite: ATP measurement in white water, percent inhibition; format: cell-based; conditions: 10 min; BBAB 80 ppm active alone; ATP at 10 min; sulfite 12.8 ppm
# Method: Synergism in the presence of sulfite. The effectiveness of the actives and the blend were evaluated in a white water (ww) sample with a sulfite content of 12.8 ppm. ATP measurements were performed in duplicate and percent inhibition calculated as a measure of antimicrobial efficacy. The raw data was converted to percent inhibition with use of the following formulation: % Inhibition=[(u−t)/u]×100 where: u=ATP value of untreated ww at time10 min t=ATP value of treated ww at time10 min.
# [4] = cited from earlier work
Compound,FIC ([1]; FIC=[A]/[a]+[B]/[b]),"MIC of compound when alone ([a] / [b]) ([1]; alone, 3 hours exposure, sub-cultured 28° C. for 48 hours)",[A]/MICA + [B]/MICB (FIC index) [2],inhibition at 80 ppm [3] [%],"solubility in isopropenol, n-butenol, glycerol, ethylene glycol, propylene glycol, and diethylene glycol ([4]; alcohols and glycols as listed)","solubility in dimethylformamide and ethylene glycol monomethylether ([4]; dimethylformamide, ethylene glycol monomethylether)",solubility in water ([4]; water)
"NCl [MCA, monochloramine]",1.0,10.0(a),–,–,–,–,–
"O=C(CBr)OC/C=C\COC(=O)CBr [BBAB, 1,4-bis(bromoacetoxy)-2-butene]",–,–,1.0,22.8,soluble,soluble,extremely low; also recorded: water insoluble
